Data: publication PMC8199339, “Propellanes as Rigid Scaffolds for the Stereodefined Attachment of σ-Pharmacophoric Structural Elements to Achieve σ Affinity” (International Journal of Molecular Sciences, 2021)

Assays:
σ1 receptor = target: T1, σ1 receptor (Cavia porcellus, UniProt Q60492); assay: σ1 receptor binding assay, radioligand [3H]-(+)-pentazocine, guinea pig brain membrane preparation; conditions: for inhibition at 1 µM / inhibition of the radioligand binding, σ1: test compound concentration of 1 µM; for Ki: [3H]-(+)-pentazocine, guinea pig brain, mean of three experiments (± SEM), values without SEM mean of two, read-out: Ki (nM) σ1
T1 construct: thawed membrane preparation of guinea pig brain; tissue Harlan-Winkelmann, Borchen, Germany (animal organs); host or cells: guinea pig brain membrane homogenate
T1 sequence (Q60492 whole entry): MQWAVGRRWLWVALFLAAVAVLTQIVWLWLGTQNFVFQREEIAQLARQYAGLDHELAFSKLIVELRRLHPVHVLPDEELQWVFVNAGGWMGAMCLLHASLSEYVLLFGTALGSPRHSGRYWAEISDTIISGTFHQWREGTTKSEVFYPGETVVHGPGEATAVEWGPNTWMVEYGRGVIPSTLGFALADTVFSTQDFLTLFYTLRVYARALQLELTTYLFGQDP

σ2 receptor = target: T2, σ2 receptor (Rattus norvegicus, UniProt Q5U3Y7); assay: σ2 receptor binding assay, radioligand [3H]di-o-tolylguanidine, rat liver membrane preparation; conditions: for Ki: read-out: Ki (nM) σ2; for inhibition at 1 µM / inhibition of the radioligand binding, σ2: test compound concentration of 1 µM
T2 construct: The thawed rat liver membrane preparation; tissue Harlan-Winkelmann, Borchen, Germany (animal organs); host or cells: rat liver membrane homogenate
T2 sequence (Q5U3Y7 1-176): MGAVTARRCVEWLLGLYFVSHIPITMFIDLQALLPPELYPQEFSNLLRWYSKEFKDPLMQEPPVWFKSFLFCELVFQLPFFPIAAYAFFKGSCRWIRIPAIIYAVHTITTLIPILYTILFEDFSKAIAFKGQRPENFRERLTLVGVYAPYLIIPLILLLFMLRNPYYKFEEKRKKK

| Compound | inhibition at 1 µM (σ1 receptor) [%] | inhibition at 1 µM (σ2 receptor) [%] | other results |
| --- | --- | --- | --- |
| COc1ccc(C)cc1NC(=O)OC1CC23CCCCC2(CC(Nc2ccc(N)cc2)C3)C1 (stereo not drawn) [8-anti-4o, [(8-anti-11-anti and 8-anti-11-syn)-11-(4-Aminophenylamino)[4.3.3]propellan-8-yl] N-(2-methoxy-5-methylphenyl)carbamate] | 16 |  | Ki (σ2 receptor): 12000 nM |
| COc1ccc(C)cc1NC(=O)OC1CC23CCCCC2(CC(NCCc2c[nH]c4ccccc24)C3)C1 (stereo not drawn) [8-syn-4k, [(8-syn-11-syn and 8-syn-11-anti)-11-[(2-(Indol-3-yl)ethylamino][4.3.3]propellan-8-yl] N-(2-methoxy-5-methylphenyl)carbamate] |  |  | Ki (σ1 receptor): 983 nM; Ki (σ2 receptor): 1400 nM |
| COc1ccc(C)cc1NC(=O)OC1CC23CCCCC2(CC(NCc2ccc(Cl)c(Cl)c2)C3)C1 (stereo not drawn) [8-anti-4d, [(8-anti-11-anti and 8-anti-11-syn)-11-(3,4-Dichlorobenzylamino)[4.3.3]propellan-8-yl] N-(2-methoxy-5-methylphenyl)carbamate] | 0 | 4 |  |
| COc1ccc(C)cc1NC(=O)OC1CC23CCCCC2(CC(NCCO)C3)C1 (stereo not drawn) [8-anti-4s, [(8-anti-11-anti and 8-anti-11-syn)-11-(2-Hydroxyethyl-1-amino)[4.3.3]propellan-8-yl] N-(2-methoxy-5-methylphenyl)carbamate] | 12 | 0 |  |
| COc1ccc(C)cc1NC(=O)N(Cc1ccccc1)C1CC23CCCCC2(CC(O)C3)C1 (stereo not drawn) [syn,anti-22, 1 -Benzyl-1-{(8-syn,11-anti)-11-hydroxy[4.3.3]propellan-8-yl}-3-(2-methoxy-5-methylphenyl)urea] |  |  | inhibition of the radioligand binding, σ1 (σ1 receptor): 0%; inhibition of the radioligand binding, σ2 (σ2 receptor; 1 µM): 8% |
| COc1ccc(C)cc1NC(=O)OC1CC23CCCCC2(CC(NCc2ccc([N+](=O)[O-])cc2)C3)C1 (stereo not drawn) [8-anti-4g, [(8-anti-11-anti and 8-anti-11-syn)-11-(4-Nitrobenzylamino)[4.3.3]propellan-8-yl] N-(2-methoxy-5-methylphenyl)carbamate] | 24 |  | Ki (σ2 receptor): 1950 nM |
| COc1ccc(C)cc1NC(=O)OC1CC23CCCCC2(CC(NCc2cc(C(F)(F)F)cc(C(F)(F)F)c2)C3)C1 (stereo not drawn) [8-anti-4f, [(8-anti-11-anti and 8-anti-11-syn)-11-[(3,5-Bis(trifluoromethyl)benzylamino]-[4.3.3]propellan-8-yl] N-(2-methoxy-5-methylphenyl)carbamate] | 0 | 0 |  |
| COc1ccc(C)cc1NC(=O)OC1CC23CCCCC2(CC(NCc2ccc(Cl)cc2)C3)C1 (stereo not drawn) [8-anti-4c, [(8-anti-11-anti and 8-anti-11-syn)-11-(4-Chlorobenzylamino)[4.3.3]propellan-8-yl] N-(2-methoxy-5-methylphenyl)carbamate] | 6 | 12 |  |
| COc1ccc(C)cc1NC(=O)N(Cc1ccccc1)C1CC23CCCCC2(CC(O)C3)C1 (stereo not drawn) [syn,syn-22, 1-benzyl-1-{(8-syn,11-syn)-11-hydroxy[4.3.3]propellan-8-yl}-3-(2-methoxy-5-methylphenyl)urea] |  |  | inhibition of the radioligand binding, σ1 (σ1 receptor): 0%; inhibition of the radioligand binding, σ2 (σ2 receptor; 1 µM): 0% |
| COc1ccc(C)cc1NC(=O)OC1CC23CCCCC2(CC(NCc2ccc(C)cc2C)C3)C1 (stereo not drawn) [8-anti-4e, [(8-anti-11-anti and 8-anti-11-syn)-11-(2,4-Dimethylbenzylamino)[4.3.3]propellan-8-yl] N-(2-methoxy-5-methylphenyl)carbamate] | 0 |  | Ki (σ2 receptor): 1100 nM |
| c1ccc(CNC2CC34CCCCC3(C2)CC2(C4)OCCO2)cc1 (stereo not drawn) [syn-14] |  |  | Ki (σ1 receptor): 750 nM; inhibition of the radioligand binding, σ2 (σ2 receptor; listed as syn- 14, 1 µM): 7% |
| c1ccc(CNC2CC34CCCCC3(C2)CC2(C4)OCCO2)cc1 (stereo not drawn) [anti-14, (11′-anti)-Spiro-([1,3]dioxolane-2,8′-(N-benzyl[4.3.3]propellan))-11′-amine] |  |  | Ki (σ1 receptor): 1400 nM; inhibition of the radioligand binding, σ2 (σ2 receptor; 1 µM): 0% |
| COc1ccc(C)cc1NC(=O)OC1CC23CCCCC2(CC(NCc2ccc(OC)c(OC)c2)C3)C1 (stereo not drawn) [8-anti-4b, [(8-anti-11-anti and 8-anti-11-syn)-11-(3,4-Dimethoxbenzylamino)[4.3.3]propellan-8-yl] N-(2-methoxy-5-methylphenyl)carbamate] | 6 | 1 |  |
| COc1ccc(C)cc1NC(=O)OC1CC23CCCCC2(CC(NCCc2ccccc2)C3)C1 (stereo not drawn) [8-anti-4p, [(8-anti-11-anti and 8-anti-11-syn)-11-(Phenethylamino)[4.3.3]propellan-8-yl] N-(2-methoxy-5-methylphenyl)carbamate] |  | 0 | Ki (σ1 receptor): 668 nM |
| COc1ccc(C)cc1NC(=O)OC1CC23CCCCC2(CC(NCC(C)C)C3)C1 (stereo not drawn) [8-anti-4u, [(8-anti-11-anti and 8-anti-11-syn)-11-(Isobutylamino)[4.3.3]propellan-8-yl] N-(2-methoxy-5-methylphenyl)carbamate] | 5 |  | Ki (σ2 receptor): 854 nM |
| COc1ccc(C)cc1NC(=O)OC1CC23CCCCC2(CC(NCCCc2ccccc2)C3)C1 (stereo not drawn) [8-anti-4q, [(8-anti-11-anti and 8-anti-11-syn)-11-(3-Phenylpropylamino)[4.3.3]propellan-8-yl] N-(2-methoxy-5-methylphenyl)carbamate] | 22 | 0 |  |
| COc1ccc(C)cc1NC(=O)OC1CC23CCCCC2(CC(NCc2ccc(N(C)C)cc2)C3)C1 (stereo not drawn) [8-anti-4h, [(8-anti-11-anti and 8-anti-11-syn)-11-[(4-Dimethylamino)benzylamino]-[4.3.3]propellan-8-yl] N-(2-methoxy-5-methylphenyl)carbamate] | 0 | 0 |  |

Continued, in another order:

| inhibition at 1 µM (σ1 receptor) [%] | inhibition at 1 µM (σ2 receptor) [%] | Compound | other results |
| --- | --- | --- | --- |
| 5 | 13 | NC1CC23CCCCC2(CCC3)C1 (centres unmarked) [compound 16] |  |
|  | 0 | COc1ccc(C)cc1NC(=O)OC1CC23CCCCC2(CC(NCc2ccco2)C3)C1 (mixture of isomers) [8-syn-4i, [(8-syn-11-syn and 8-syn-11-anti)-11-[(Furan-2-yl-mehtyl)amino][4.3.3]propellan-8-yl] N-(2-methoxy-5-methylphenyl)carbamate] | Ki (σ1 receptor): 276 nM |
| 0 |  | COc1ccc(C)cc1NC(=O)N(Cc1ccccc1)C1CC23CCCCC2(CC(O)C3)C1 (stereo not drawn) [anti,syn-22, 1-benzyl-1-{(8-anti,11-syn)-11-hydroxy[4.3.3]propellan-8-yl}-3-(2-methoxy-5-methylphenyl)urea] | inhibition of the radioligand binding, σ2 (σ2 receptor; 1 µM): 17% |
| 0 | 0 | O=C(Nc1ccc(F)c(F)c1)NC1CC23CCCCC2(CC(O)C3)C1 (stereo not drawn) [anti,anti-26, 1-(3,4-Difluorophenyl)-3-(8-anti-11-anti-11-hydroxy[4.3.3]propellan-8-yl)urea] |  |
|  | 27 | OC1CC23CCCCC2(C1)CC(NCc1ccccc1)C3 (mixture of isomers) [11-syn-13, [(8-syn-11-syn and 8-syn-11-anti)-11-(Benzylamino)[4.3.3]propellan-8-ol] | Ki (σ1 receptor): 619 nM |
|  | 39 | c1ccc(CNC2CC34CCCCC3(CCC4)C2)cc1 (centres unmarked) [compound 8] | Ki (σ1 receptor): 594 nM; reduction of σ1 affinity compared to azapropellane 9a (σ1 receptor; compared to 9a): 35 fold; selectivity for the σ1 receptor over the σ2 receptor (σ1 receptor; σ1 over σ2): at least 10 fold |
|  | 0 | O=C1CC23CCCCC2(C1)CC(NC(=O)Nc1ccc(F)c(F)c1)C3 (stereo not drawn) [syn-25, 1-(3,4-. Difluorophenyl)-3-(8-syn-11-oxo[4.3.3]propellan-8-yl)urea] | inhibition of the radioligand binding, σ1 (σ1 receptor; 1 µM): 10% |
